# Values joined by “and” are separate entries in the source; they are usually repeats but may differ in a detail not shown here. Equal entries are not always repeated.
# Key:
# [1] = tested on: HIV-1NL4-3; test: Anti-HIV-1 assay in TZM-GFP cells; conditions: for Inhibition% at 2 μM: 2 μM compound; for Inhibition% at 20 μM: 20 μM compound
# [2] = mouse, microsomes
# [3] = human, microsomes
# [4] = Microsomal stability assay, human liver microsomes; conditions: without Cobi
# [5] = HLMs; cited from earlier work
Molecule,Inhibition% at 2 μM [1] [%],Inhibition% at 20 μM [1],"Phase I metabolic stability t1/2, MLM [2] [min]","Phase I metabolic stability t1/2, HLM [3] [min]",fold improved half-life over PF74 in HLMs [4],half-life (t1/2) in human liver microsomes [5]
"CN(C(=O)[C@H](Cc1ccccc1)NC(=O)Cc1ccc2ccccc2c1)c1ccc(Cl)cc1 [Compound 27, (S)-N-(4-Chlorophenyl)-N-methyl-2-(2-(naphthalen-2-yl)acetamido)-3-phenylpropanamide]",95,100%,1.4,2.7,–,–
"CN(C(=O)C(Cc1ccccc1)NC(=O)CN1C(=O)NC2(CCCCC2)C1=O)c1ccc(Cl)cc1 (stereo not drawn) [Compound 50, N-(4-Chlorophenyl)-2-(2-(2,4-dioxo-1,3-diazaspiro[4.5]decan-3-yl)acetamido)-N-methyl-3-phenylpropanamide]",–,−/96%,1.1,2.5,–,–
"(2S)-N-(3-Chlorophenyl)-2-(2-(4,7-dimethyl-2-oxoindolin-3-yl)acetamido)-N-methyl-3-phenylpropanamide [Compound 24]",–,–,1.4,6.7,7 to 10 fold and 10 fold,–
(S)-N-(4-Chlorophenyl)-N-methyl-2-(2-(naphthalen-1-yl)acetamido)-3-phenylpropanamide [Compound 33],98,100%,0.6,1.1,–,–
"(S)-N-Methyl-2-(2-(2-methyl-1H-indol-3-yl)acetamido)-N,3-diphenylpropanamide [PF74, reference compound]",91,98%,0.6,–,–,less than 1 min

# From PMC7530112 (European journal of medicinal chemistry, 2020)
